Measured values taken from article PMC10709440, “High-throughput ligand profile characterization in novel cell lines expressing seven heterologous insect olfactory receptors for the detection of volatile plant biomarkers” (Scientific Reports, 2023).
Where two headings read alike, the source gives them in different places.

Experiments:
Drosophila OR10a = target: T1, Drosophila OR10a (Drosophila melanogaster, UniProt Q9VYZ1); experiment: Calcium ion fluorescence (GCaMP6) assay, OR10a stable HEK293 cell line; type: cell-based
T1 construct: expressed in transfected cells
T1 sequence (Q9VYZ1 1-406): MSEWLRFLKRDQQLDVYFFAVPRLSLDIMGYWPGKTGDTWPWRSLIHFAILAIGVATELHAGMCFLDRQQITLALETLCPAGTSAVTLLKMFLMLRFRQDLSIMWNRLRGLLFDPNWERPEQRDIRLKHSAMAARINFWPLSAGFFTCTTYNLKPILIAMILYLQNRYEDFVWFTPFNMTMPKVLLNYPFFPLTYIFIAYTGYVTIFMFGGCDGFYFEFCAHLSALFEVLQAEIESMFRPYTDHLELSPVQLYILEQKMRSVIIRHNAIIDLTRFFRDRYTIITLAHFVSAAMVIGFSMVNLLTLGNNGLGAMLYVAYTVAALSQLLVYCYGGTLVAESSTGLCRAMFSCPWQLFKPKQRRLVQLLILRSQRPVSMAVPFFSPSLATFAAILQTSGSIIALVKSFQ
T1 sequence (Q9VNB5 1-486 partner): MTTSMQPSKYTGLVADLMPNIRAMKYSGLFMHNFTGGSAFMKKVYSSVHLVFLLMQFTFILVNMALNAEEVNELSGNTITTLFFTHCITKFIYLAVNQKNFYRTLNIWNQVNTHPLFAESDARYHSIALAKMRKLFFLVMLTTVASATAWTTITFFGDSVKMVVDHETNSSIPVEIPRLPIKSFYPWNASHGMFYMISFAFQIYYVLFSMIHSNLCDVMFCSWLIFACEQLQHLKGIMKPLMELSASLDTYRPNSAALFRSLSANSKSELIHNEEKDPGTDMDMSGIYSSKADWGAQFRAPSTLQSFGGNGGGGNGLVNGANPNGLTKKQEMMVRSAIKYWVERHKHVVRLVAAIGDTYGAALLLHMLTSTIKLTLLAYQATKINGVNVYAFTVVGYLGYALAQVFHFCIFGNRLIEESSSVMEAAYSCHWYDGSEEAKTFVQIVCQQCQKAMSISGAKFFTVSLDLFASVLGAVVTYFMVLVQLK
Method: (§1) These VUAA1 normalized ∆F values were used to compare the different receptors and ligands.
(§2) The concentration-dependent effect of the reference ligands on their cognate cell lines was examined in more detail. Twelve different ligand concentrations were measured on each cell line in an overall 0.01 μM to 100 μM concentration range with 5 repetitions with three technical replicates each time.
(§3) Twelve thousand to 18,000 cells were plated into each well of a black wall, transparent bottom 384-well microplate (Greiner) 48 h or 72 h before the measurements and were simultaneously treated with 1 μg/mL doxycycline. […] The plate has 24 columns, thus we could record responses in up to eight different cell lines in each plate. On the day of the experiment, the growth medium was replaced with 20 µL assay buffer/well (140 mM NaCl, 5 mM KCl, 2 mM CaCl2, 1 mM MgCl2, 5 mM HEPES-Na, 20 mM glucose, pH 7.3, 340 mOsm). […] Baseline fluorescence (F0) was recorded for 5 s, after which 7 µL VOC buffer (140 mM NaCl, 5 mM KCl, 2 mM CaCl2, 1 mM MgCl2, 5 mM HEPES-Na, 31 mM glucose, 0.1% DMSO, pH 7.3, 340 mOsm) was injected into each well in one row and the fluorescence response was recorded for an additional 30 s, at a rate of one read/sec. VOC solutions (VOC buffer with 4× concentration of the final measured VOC concentration, 9 µL/well was injected) were measured on the same wells in a second round with the same protocol. Each individual concentration of a specific VOC sample was recorded in three wells for the same cell line on the same microplate. The raw data were exported in xls file format, F0 and FMAX values, and the fluorescence intensity changes (∆F) were calculated in Excel (Microsoft) (Supplementary file Data summary.xlsx) using the following equation: ΔF=FMAX-F0/F0 (see also Fig. 1C). On each plate, we recorded the response of each cell line to 50 µM VUAA1. The average of these ∆F values of each cell line were used to calculate the VUAA1-normalized values for the rest of the plate, by dividing VOC response ∆F values by the average VUAA1 response ∆F value of the corresponding OR cell line. Each VOC-OR combination was measured three times as technical replicates. […] The average of these replicates were used as one ∆F and VUAA1-normalized ∆F in the following analysis.
(§4) In the next rows we tested the reference VOCs (or other VOCs known to activate the corresponding cell lines), in order to test if all cell lines are responsive. The remaining rows were used to test VOCs with unknown effect.
(§5) The recorded FMAX, F0, ∆F, VUAA1-normalized ∆F values, as well as the OR name, the name of the tested sample, and the final concentration for each well were copied into supplementary file Data summary.xlsx, that was used to summarize all the plates recorded. Here, the averages of the measurements were calculated for each receptor-VOC-concentration combination.

Drosophila OR13a = target: T2, Drosophila OR13a (Drosophila melanogaster, UniProt Q9VXL0); experiment: Calcium ion fluorescence (GCaMP6) assay, OR13a stable HEK293 cell line; type: cell-based; details: for DF norm AVERAGE OR13a: normalized fluorescence change, values below 0.05 threshold given as 0
T2 construct: expressed in transfected cells
T2 sequence (Q9VXL0 1-418): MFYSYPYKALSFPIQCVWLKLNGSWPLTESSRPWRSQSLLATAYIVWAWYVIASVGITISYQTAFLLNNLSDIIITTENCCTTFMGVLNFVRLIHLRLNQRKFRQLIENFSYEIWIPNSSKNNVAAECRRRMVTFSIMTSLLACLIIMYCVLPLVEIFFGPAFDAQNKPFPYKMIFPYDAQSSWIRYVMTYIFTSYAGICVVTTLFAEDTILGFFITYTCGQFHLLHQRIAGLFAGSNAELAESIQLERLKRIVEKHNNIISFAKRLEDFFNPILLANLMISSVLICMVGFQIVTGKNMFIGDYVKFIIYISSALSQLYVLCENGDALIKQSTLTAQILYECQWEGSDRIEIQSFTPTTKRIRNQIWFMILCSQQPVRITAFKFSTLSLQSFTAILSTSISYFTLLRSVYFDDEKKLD
T2 sequence (Q9VNB5 1-486 partner): T1 sequence (Q9VNB5 1-486 partner)
Method: as §1, §2, §3, §4, §5

[1] = HEK293, 1 μM VOC, 50 μM VUAA1 = 1, responses not exceeding 0.05 considered 0, read-out: OR10a Average response (VUAA1-normalized)
[2] = HEK293, 10 μM VOC, 50 μM VUAA1 = 1, responses not exceeding 0.05 considered 0, read-out: OR10a Average response (VUAA1-normalized)
[3] = HEK293, 100 μM VOC, 50 μM VUAA1 = 1, responses not exceeding 0.05 considered 0, read-out: OR10a Average response (VUAA1-normalized)
[4] = HEK293, read-out: OR10a response (VUAA1-normalized response), VOC concentration 1 μM
[5] = HEK293, read-out: OR10a response (VUAA1-normalized response), VOC concentration 10 μM
[6] = HEK293, read-out: OR10a response (VUAA1-normalized response), VOC concentration 100 μM
[7] = HEK293, read-out: OR13a Average response (VUAA1-normalized), 1 μM VOC, 50 μM VUAA1 = 1, responses not exceeding 0.05 considered 0
[8] = HEK293, read-out: OR13a Average response (VUAA1-normalized), 10 μM VOC, 50 μM VUAA1 = 1, responses not exceeding 0.05 considered 0
[9] = HEK293, read-out: OR13a Average response (VUAA1-normalized), 100 μM VOC, 50 μM VUAA1 = 1, responses not exceeding 0.05 considered 0
[10] = HEK293, read-out: OR13a response (VUAA1-normalized response), VOC concentration 1 μM
[11] = HEK293, read-out: OR13a response (VUAA1-normalized response), VOC concentration 10 μM
[12] = HEK293, read-out: OR13a response (VUAA1-normalized response), VOC concentration 100 μM

| SMILES | DF norm AVERAGE OR10a (Drosophila OR10a) | activation at 1 µM (Drosophila OR10a; [1]) [%] | activation at 10 µM (Drosophila OR10a; [2]) [%] | activation at 100 µM (Drosophila OR10a; [3]) [%] | activation at 1 µM (Drosophila OR10a; [4]) [%] | activation at 10 µM (Drosophila OR10a; [5]) [%] | activation at 100 µM (Drosophila OR10a; [6]) [%] | activation at 1 µM (Drosophila OR13a; [7]) [%] | activation at 10 µM (Drosophila OR13a; [8]) [%] | activation at 100 µM (Drosophila OR13a; [9]) [%] | activation at 1 µM (Drosophila OR13a; [10]) [%] | activation at 10 µM (Drosophila OR13a; [11]) [%] | activation at 100 µM (Drosophila OR13a; [12]) [%] | DF norm AVERAGE OR13a (Drosophila OR13a; concentration 1) | DF norm AVERAGE OR13a (Drosophila OR13a; concentration 10) | DF norm AVERAGE OR13a (Drosophila OR13a; concentration 100) |
| --- | --- | --- | --- | --- | --- | --- | --- | --- | --- | --- | --- | --- | --- | --- | --- | --- |
| CCCCCO [1-pentanol] | 0 | 0 | 0 | 0 | 0 | 0 | 0 | 0 | 1.6 | 0 | 0 | 0 | 0 | 0 | 0 | 0 |
| CCCCCC(C)O (stereo not shown) [2-heptanol] | – | 3.76 | 7.54 | 0 | 0 | 7.54 | 0 | 4 | 0 | 8 | 0 | 0 | 8 | 0 | 0 | 0.07697 |
